Drawing on ChEMBL document CHEMBL4428063, “Novel Pyrimidine Toll-like Receptor 7 and 8 Dual Agonists to Treat Hepatitis B Virus” (J Med Chem, 2016), this text covers LED for 35 compounds.

In assay [1] the target is T1, Toll-like receptor 7 (Homo sapiens) (UniProt Q9NYK1).
T1 sequence (whole entry): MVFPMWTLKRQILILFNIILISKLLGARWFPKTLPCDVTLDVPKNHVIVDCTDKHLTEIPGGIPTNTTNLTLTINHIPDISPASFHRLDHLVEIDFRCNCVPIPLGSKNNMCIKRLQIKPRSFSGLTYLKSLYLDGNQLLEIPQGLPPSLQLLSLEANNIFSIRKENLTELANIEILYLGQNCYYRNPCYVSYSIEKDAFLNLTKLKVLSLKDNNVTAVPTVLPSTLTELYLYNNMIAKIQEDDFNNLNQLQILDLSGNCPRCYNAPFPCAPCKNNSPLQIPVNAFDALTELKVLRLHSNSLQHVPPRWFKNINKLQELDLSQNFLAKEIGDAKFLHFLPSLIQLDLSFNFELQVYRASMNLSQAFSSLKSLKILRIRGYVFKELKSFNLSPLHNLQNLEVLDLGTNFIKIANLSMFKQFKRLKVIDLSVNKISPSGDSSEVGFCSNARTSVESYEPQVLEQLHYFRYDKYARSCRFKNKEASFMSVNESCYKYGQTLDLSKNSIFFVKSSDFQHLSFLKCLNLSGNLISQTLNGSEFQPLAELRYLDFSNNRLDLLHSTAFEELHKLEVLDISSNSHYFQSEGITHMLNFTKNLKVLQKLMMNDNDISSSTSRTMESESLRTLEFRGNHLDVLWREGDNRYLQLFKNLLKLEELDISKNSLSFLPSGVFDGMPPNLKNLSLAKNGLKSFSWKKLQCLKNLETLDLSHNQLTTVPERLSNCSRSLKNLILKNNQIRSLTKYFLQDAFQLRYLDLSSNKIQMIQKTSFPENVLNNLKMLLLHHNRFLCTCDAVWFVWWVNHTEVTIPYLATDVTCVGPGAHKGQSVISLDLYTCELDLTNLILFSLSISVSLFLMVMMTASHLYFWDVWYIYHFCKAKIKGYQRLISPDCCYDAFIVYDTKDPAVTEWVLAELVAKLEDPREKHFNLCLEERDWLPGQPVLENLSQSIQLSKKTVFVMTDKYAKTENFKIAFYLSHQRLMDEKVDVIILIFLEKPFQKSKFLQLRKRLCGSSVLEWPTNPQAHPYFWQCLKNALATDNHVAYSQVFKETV
The assay can be described thus: Agonist activity at human TLR7 expressed in HEK293 cells measured after 6 hrs by NF-kappaB luciferase reporter gene assay. Format: cell-based. A general note: In a reporter assay the amount or activity of a reporter protein is the signal.

The target of assay [2] is T2, Toll-like receptor 8 (Homo sapiens) (UniProt Q9NR97).
T2 sequence (whole entry): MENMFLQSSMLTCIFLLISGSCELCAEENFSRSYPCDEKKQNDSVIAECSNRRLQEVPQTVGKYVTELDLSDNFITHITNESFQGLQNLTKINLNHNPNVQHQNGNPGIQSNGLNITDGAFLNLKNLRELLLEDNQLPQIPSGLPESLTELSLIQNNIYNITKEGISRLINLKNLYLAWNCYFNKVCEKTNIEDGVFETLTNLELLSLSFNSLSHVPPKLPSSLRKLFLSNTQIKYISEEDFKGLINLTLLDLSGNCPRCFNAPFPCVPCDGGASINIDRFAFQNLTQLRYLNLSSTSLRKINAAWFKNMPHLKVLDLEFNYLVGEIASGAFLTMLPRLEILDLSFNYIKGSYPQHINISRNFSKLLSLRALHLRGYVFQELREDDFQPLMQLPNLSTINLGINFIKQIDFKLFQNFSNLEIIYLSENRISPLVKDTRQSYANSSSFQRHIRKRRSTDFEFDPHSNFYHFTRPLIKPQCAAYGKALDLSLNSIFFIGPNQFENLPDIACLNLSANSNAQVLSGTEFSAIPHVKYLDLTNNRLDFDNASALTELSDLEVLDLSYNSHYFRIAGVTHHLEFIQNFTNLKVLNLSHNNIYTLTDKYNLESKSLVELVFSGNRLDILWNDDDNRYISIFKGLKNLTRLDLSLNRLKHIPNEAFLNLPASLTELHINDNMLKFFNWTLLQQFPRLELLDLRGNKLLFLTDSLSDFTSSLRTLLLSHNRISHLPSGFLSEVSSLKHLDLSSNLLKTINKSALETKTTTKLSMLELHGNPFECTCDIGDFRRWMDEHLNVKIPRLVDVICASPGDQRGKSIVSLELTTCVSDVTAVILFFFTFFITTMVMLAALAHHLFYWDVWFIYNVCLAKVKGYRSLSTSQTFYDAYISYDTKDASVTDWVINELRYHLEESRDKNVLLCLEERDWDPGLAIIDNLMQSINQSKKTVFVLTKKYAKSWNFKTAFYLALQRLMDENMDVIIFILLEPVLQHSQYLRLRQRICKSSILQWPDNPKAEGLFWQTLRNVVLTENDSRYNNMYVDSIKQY
The assay can be described thus: Agonist activity at human TLR8 expressed in HEK293 cells assessed as measured after 6 hrs by NF-kappaB luciferase reporter gene assay. The class given is cell-based.

The target of assay [3] is T1, Toll-like receptor 7 (Homo sapiens). Description: Activation of TLR7 in human PBMCs incubated for overnight duration followed by compound-treated cell supernatant conditioned media transfer to HCV1b transfected human HuH7-luc/neo replicon cells assessed as induction of INFalpha-mediated suppression of virus growth by firefly-luciferase reporter gene assay. For orientation: Replicon systems follow genome replication, usually without infectious particles.

For assay [4], the system named is HEK293. The assay can be described thus: Agonist activity at human TLR7-dLRR2 mutant expressed in HEK293 cells measured after 6 hrs by NF-kappaB luciferase reporter gene assay. Format: cell-based.

Take `CCCCCNc1nc(N)ncc1OCC`: the LED in assay [1] was determined as 6 µM; in assay [2], 3.2 µM.

On to `CCCCNc1nc(N)nc(C)c1OCc1ccccc1`, for which the LED stood at 18 µM in assay [1] and 7.5 µM in assay [2].

Take `CC[C@H](C)[C@@H](CO)Nc1nc(N)ncc1OC`: the LED in assay [3] turned out to be 1.7 µM; in assay [1], 17.8 µM; in assay [2], 0.66 µM.

For `CCCCNc1nc(N)ncc1OCc1c(C)noc1C`, the LED in assay [3] was 0.38 µM; in assay [1] it was 3.1 µM; in assay [2] it was 1 µM.

As for `CCCCNc1nc(N)ncc1OCC`, the LED worked out at 1.6 µM in assay [4], 4.7 µM in assay [1] and 1.1 µM in assay [2].

With `COc1cnc(N)nc1NCCCC(F)(F)F`, the LED amounted to 1.6 µM in assay [3], 6.5 µM in assay [1] and 6.6 µM in assay [2].

Consider `CCCCNc1nc(N)ncc1OCCCc1ccccc1`, for which the values for the LED in assay [3], in assay [1] and in assay [2] were 0.25 µM, 1.5 µM and 7.9 µM, respectively.

In the case of `CCCCNc1nc(N)ncc1OCc1cc(C)nn1C`, the LED stood at 0.39 µM in assay [3], 0.7 µM in assay [1] and 0.92 µM in assay [2].

In the case of `CCCCNc1nc(N)ncc1OC(C)C`, the LED in assay [3] was found to be 0.5 µM; in assay [1], 10 µM; in assay [2] it was 0.7 µM.

Turning to `CCCCNc1nc(N)ncc1OCc1nccc(OC)c1OC`, the LED stood at 0.022 µM in assay [3], 0.13 µM in assay [1] and 0.6 µM in assay [2].

For `CCCCNc1nc(N)ncc1OCc1nc(C)oc1C`, the figures for the LED in assay [1] and in assay [2] were 0.46 µM and 1.58 µM, respectively.

As for `CCCCNc1nc(N)ncc1OCc1nccc2ccccc12`, the LED in assay [3] came to 0.003 µM; in assay [1], 0.008 µM; in assay [2] it was 0.14 µM.

As to `CCC(C)[C@H](CCO)Nc1nc(N)ncc1OC` (some centres undefined), the values for the LED in assay [3], in assay [1] and in assay [2] were 2.2 µM, 10.4 µM and 2.6 µM, respectively.

Take `CCCCNc1nc(N)ncc1OCc1nc2ccccc2s1`: the LED came out at 0.11 µM in assay [3], 0.28 µM in assay [1] and 2.6 µM in assay [2].

As to `CCCCNc1nc(N)ncc1OCc1ccc2ccccc2n1`, the LED in assay [3] was determined as 0.09 µM; in assay [1], 0.3 µM; in assay [2] it was 0.89 µM.

Consider `CCCCNc1nc(N)ncc1OCc1nc2ccccc2[nH]1`, for which the LED in assay [3] is 0.012 µM; in assay [1] it was 0.032 µM; in assay [2], 0.65 µM.

For the compound `COc1cnc(N)nc1N[C@H](CCO)CC(C)C`, the LED in assay [3] was found to be 7.5 µM; in assay [1], 10.8 µM; in assay [2] it was 2.3 µM.

As for `CCCC[C@@H](CO)Nc1nc(N)ncc1OC`, the LED worked out at 0.4 µM in assay [3], 8.01 µM in assay [1] and 0.39 µM in assay [2].

As for `CCCC(C)Nc1nc(N)ncc1OC` (racemic), the LED was 1.7 µM in assay [3], above 25 µM in assay [1] and 2.8 µM in assay [2].

In the case of `CCC[C@H](CO)Nc1nc(N)ncc1OC`, the LED is above 25 µM in assay [1] and 9 µM in assay [2].

With `CCCCNc1nc(N)ncc1OCc1ncco1`, the values for the LED in assay [1] and in assay [2] were 2.87 µM and 3.6 µM, respectively.

As for `COc1cnc(N)nc1N[C@H](CO)CC(C)C`, the LED in assay [3] was 11 µM; in assay [1], above 25 µM; in assay [2] it was 16 µM.

On to `COc1cnc(N)nc1NCCC1CC1`, for which the LED in assay [3] is 6.8 µM; in assay [1] it was above 25 µM; in assay [2] it was 20.9 µM.

For the compound `CCCCNc1nc(N)ncc1OCc1cc2ccccn2n1`, the LED was determined as 0.037 µM in assay [3], 0.21 µM in assay [1] and 1.3 µM in assay [2].

Take `CCCCNc1nc(N)ncc1OCc1nn(C)c2ccccc12`: the LED was 0.011 µM in assay [3], 0.014 µM in assay [1] and 0.18 µM in assay [2].

`CCCCNc1nc(N)ncc1OCc1cnccn1`: the LED in assay [3] stood at 0.16 µM; in assay [1], 0.51 µM; in assay [2] it was 2.28 µM.

For the compound `C=CCNc1nc(N)ncc1OC`, the LED is 6.2 µM in assay [3], above 25 µM in assay [1] and 8.5 µM in assay [2].

For `CC[C@H](C)CNc1nc(N)ncc1OC`, the LED was above 24 µM in assay [3], above 25 µM in assay [1] and above 25 µM in assay [2].

Turning to `CCCCNc1nc(N)ncc1OCCC`, the LED in assay [3] was 4.8 µM; in assay [1] it was 6.2 µM; in assay [2], 4.5 µM.

On to `CCC[C@@H](CCO)Nc1nc(N)ncc1OC`, for which the LED in assay [3] stood at 0.8 µM; in assay [1], 7.3 µM; in assay [2] it was 1.4 µM.

As for `CCCCNc1nc(N)ncc1OCc1csc(C)n1`, the results for the LED in assay [3], in assay [1] and in assay [2] were 0.07 µM, 0.29 µM and 0.74 µM, respectively.

As to `CCCCNc1nc(N)ncc1OCc1cnn(C)c1`, the LED was determined as 7 µM in assay [1] and 13.7 µM in assay [2].

For the compound `CCCCNc1nc(N)ncc1OCc1cccnn1`, the LED is 0.12 µM in assay [3], 0.52 µM in assay [1] and 0.83 µM in assay [2].

In the case of `CCC[C@@H](CO)Nc1nc(N)ncc1OC`, the LED in assay [3] amounted to 0.4 µM; in assay [1] it was 8.4 µM; in assay [2], 0.25 µM.

Take `CCCCNc1nc(N)ncc1OCc1ccccc1`: the figures for the LED in assay [3], in assay [1] and in assay [2] were 0.39 µM, 0.9 µM and 2.4 µM, respectively.
